Source: patent US6525078B1, “Compound for the treatment of atherosclerotic-thrombotic pathological conditions” (priority 2002, dated 2003)

How the values were obtained:
rabbit aortae = assay: Vascular relaxation of contracted aortic rings in vitro; details: at a concentration of 10^−4 M; contraction induced with norepinephrine (10^−6 M)
Description: The ability to induce vascular relaxation by acting as a donor of nitric oxide was tested in vitro on rabbit aortae. Rings of aortae were suspended in a Krebs-Henseleit solution at 37° C., submitted to a 1 g tension and connected to a force transducer.

[1] = tested on: transcellular synthesis of prostacyclin; assay: Transcellular prostacyclin synthesis: human PRP layered on acetylsalicylic acid-pretreated cultured bovine endothelial cells (6-keto-prostaglandin F1α by radioimmunoassay); assay type: cell-based
Description: The effects on the transcellular synthesis of prostacyclin from endoperoxides generated in platelets were assessed by layering platelet rich plasma (PRP), obtained from healthy human subjects as described above, on cultured bovine endothelial cells (5×10^5 cells/well). The endothelial cells were pretreated with acetylsalicylic acid (10^−4 M) in order to inhibit the direct synthesis of endoperoxides, and washed twice with Dulbecco's phosphate buffered saline. Then to individual samples of endothelial cells there were added at 37° C. while shaking on an oscillating platform, 0.5 ml of PRP samples pretreated with the test compounds in various concentrations, ranging from […] to 10^−3 M. Collagen (0.5 μg/ml) was then added to each sample. After 2 minutes of contact at 37° C., PRP was removed and centrifuged at 12,000×g, and the supernatant was frozen and kept at −20° C. for the determination of 6-keto-prostaglandin F1α by radioimmunoassay.
6-Keto-prostaglandin F1α is a stable metabolite into which prostacyclin is rapidly converted.

[2] = tested on: platelet aggregation in platelet-rich plasma (PRP); assay: Platelet aggregation in human platelet-rich plasma (aggregometer, light transmittance); assay type: cell-based; details: for ability to counteract platelet aggregation by arachidonic acid: aggregation induced by arachidonic acid, human PRP
Description: Platelet aggregation experiments were performed on platelet-rich plasma (PRP) prepared from blood of healthy human subjects, who had not taken cyclooxygenase inhibitors (acetylsalicylic acid, non-steroidal anti-inflammatory agents) for at least two weeks. Blood was collected in test tubes containing a 3.2% sodium citrate solution ( 1/10 of blood volume) and immediately centrifuged at 150×g for 15 minutes. Samples of PRP were further centrifuged at 12,000×g in order to obtain platelet-poor plasma (PPP), used for calibration of light transmittance of the double-channel aggregometer, fixing the transmittance of PRP as 10% and that of PPP as 90%. Platelet aggregation in PRP of each subject was tested measuring the percent increase in transmittance under the addition of increasing amounts of sodium arachidonate, in concentrations in the range from 300 to 900 μM, or of collagen, in concentrations in the range from 0.5 to 2.5 μg/ml, or of U-46619, in concentrations in the range from 0.2 to 1.6 μM. (U-46619, i.e., 9,11-dideoxy-11α, 9α-epoxymethano-prostaglandin F2α is an active synthetic analogue of thromboxane A2 and it is chemically stable, at difference from the natural compound; it is therefore used as a substitute in pharmacological experiments). In this way the threshold concentration, i.e., the concentration inducing a submaximal irreversible aggregation was assessed in each subject with the three agents.
PRP samples of subjects not responding to the maximal concentrations were discarded.

thromboxane synthesis = assay: Thromboxane synthesis in clotting blood (serum TxB2 by radioimmunoassay); assay type: cell-based; details: human blood clotted 60 min at 37° C.
Description: Test compounds were added in a series of concentrations ranging from 10^−7 M to 10^−3 M to samples of blood from healthy human subjects, who had not taken cyclooxygenase inhibitors (acetylsalicylic acid, non-steroidal anti-inflammatory agents) for at least two weeks. The blood samples were allowed to clot for 60 min in a bath at 37° C., and then centrifuged at 2500×g for 10 min. The serum was separated and kept frozen at −20° C. for the determination of TxB2 by radio immunoassay. TxB2 is the stable metabolite into which thromboxane A2 is rapidly converted.

In the case of `COc1ccc(C(=O)N[C@H]2CC[C@H](O[N+](=O)[O-])CC2)cc1C(=O)NCc1cccnc1` [4-Methoxy-N^1-(4-trans-nitrooxycyclohexyl)-N^3-(3-pyridinylmethyl)-1,3-benzenedicarboxamide], the “relaxation of the aortic ring” value (rabbit aortae) is reported as “complete relaxation”, the “level of prostacyclin metabolite relative to the amount produced in basal conditions by endothelial cells not submitted to cyclooxygenase inhibition” value ([1]; acetylsalicylic acid-treated endothelial cells, collagen 0.5 μg/ml) is reported as 8-16 times and the “production of the prostacyclin metabolite (6-keto-prostaglandin F1α), level reached” value ([1]; acetylsalicylic acid-treated endothelial cells, collagen 0.5 μg/ml, 2 minutes at 37° C.) is reported as 800-1600 μpg/ml. The “concentration from which production of the prostacyclin metabolite was markedly increased” value ([1]; collagen 0.5 μg/ml, 2 minutes at 37° C., 6-keto-prostaglandin F1α) was ≥ 10^−6 M.

With `CC(=O)Oc1ccccc1C(=O)O` [acetylsalicylic acid] the “ability to counteract platelet aggregation by arachidonic acid” value (from here on “ability … by arachidonic acid”) [2] was “shared” and the “effect on thromboxane synthesis” value (thromboxane synthesis) was “at difference from acetylsalicylic acid and ozagrel”.

For `O=C(O)Cc1ccc(CCNS(=O)(=O)c2ccc(Cl)cc2)cc1` [daltroban, p-[2-(p-chlorobenzenesulfonamido)ethyl]phenylacetic], the “stimulation of the synthesis of prostacyclin” value ([1]; PRP on acetylsalicylic acid-treated bovine endothelial cells) was “did not stimulate the synthesis of prostacyclin”, the “ability to counteract the aggregation by U-46619” value ([2]; aggregation induced by U-46619, human PRP) was “shared only by daltroban” and the “ability … by arachidonic acid” value [2] was “shared”.

`O=C(O)/C=C/c1ccc(Cn2ccnc2)cc1` [ozagrel, (E)-3-[4-(1H-imidazol-1-ylmethyl)-phenyl]-2-propenoic acid] was tested, and the “ability … by arachidonic acid” value [2] was “shared” and the “effect on thromboxane synthesis” value (thromboxane synthesis) was “at difference from acetylsalicylic acid and ozagrel”.
